Residues, ends and D or L forms follow the SMILES beside them. *: point of attachment. Cbz = O=C(OCc1ccccc1)*
System: WT MYXV
Format: cell-based, myxoma virus

Compound: CC(C)C[C@@H](C=O)NC(=O)[C@H](CC(C)C)NC(=O)[C@H](CC(C)C)NC(=O)OCc1ccccc1 [MG132, Z-Leu-Leu-Leu-al] (Cbz-Leu-Leu-Leu-aldehyde)
- improved infection in SAMD9-null cells: did not affect improved infection

Compound: Actinomycin D
- elevated luciferase activity resulting from infecting SAMD9-null cells: did not eliminate the elevated luciferase activity
- overall luciferase activity compared with untreated corresponding infection: did reduce the overall luciferase activity

Compound: cytosine beta-D-arabinofuranoside [Cytosine arabinoside]
- luciferase activity emitted from infection in both cell lines: did not affect luciferase activity

From patent publication US12428626B2 (priority 2018, dated 2025)
